Measurements as given in the supplement of paper PMC10307832.

What follows are cell lines tested with CC(C)N(CCCNC(=O)Nc1ccc(C(C)(C)C)cc1)C[C@H]1O[C@@H](n2ccc3c(N)ncnc32)[C@H](O)[C@@H]1O + Cc1nc(NC(=O)N2CCC[C@H]2C(N)=O)sc1-c1ccnc(C(C)(C)C(F)(F)F)c1 [Alpelisib] (partner 2 µM) (assay: relative viability (nuclei count vs DMSO), 5 days (fraction); higher = more cells survive). Settings: first compound 8 µM.
Procedure, shortened: (§1)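 The day after seeding in 1536-well plates, lung cancer cell lines were treated by pin tool with a single drug, or with a fixed anchor-drug dose together with five library-drug doses (not always all listed) in √10 steps. After 5 days, a combined fix-and-stain solution (final 0.05% Triton X-100, 1% formaldehyde, 1 ug/ml Hoechst) was added. Nuclei counted on 4× images gave relative viability as treated counts over vehicle counts, reported as the median of duplicate plates.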

Cell Line | relative viability
LXF-289 | 1.04
NCI-H2347 | 1
CAL-12T | 1
NCI-H1651 | 1.04
EPLC-272H | 1.03
NCI-H23 | 0.668
NCI-H1355 | 0.804
NCI-H322M | 0.829
NCI-H1437 | 0.945
NCI-H1755 | 0.84
NCI-H2085 | 0.913
HCC-15 | 0.811

Each cell line was assayed with CC(C)=CC[C@@H](O)C1=CC(=O)c2c(O)ccc(O)c2C1=O [Shikonin] + NC(=O)Nc1cc(-c2cccc(F)c2)sc1C(=O)N[C@H]1CCCNC1 [AZD7762] (partner 0.2 µM) in the same assay as above. Settings: first compound 0.01 µM.
Procedure, shortened: as §1

Cell Line | relative viability
NCI-H2170 | 0.912
NCI-H3122 | 0.973
HOP-62 | 0.949
LU99A | 0.381
BEN | 0.744
HARA | 0.259
HCC-78 | 0.647
NCI-H441 | 1.39
LCLC-97TM1 | 0.286
A-427 | 0.771
NCI-H460 | 0.739
NCI-H838 | 0.97
NCI-H1734 | 0.557
NCI-H596 | 1.06
NCI-H2405 | 0.794
NCI-H1395 | 0.375

Cell Line | relative viability
201T | 0.638
NCI-H1915 | 0.695
HCC-827 | 0.203
LXF-289 | 1.13
NCI-H2347 | 0.77
CAL-12T | 0.606
NCI-H1651 | 0.487
EPLC-272H | 0.194
NCI-H23 | 0.223
NCI-H1355 | 0.739
NCI-H322M | 0.59
NCI-H1437 | 1.12
NCI-H1755 | 0.384
NCI-H2085 | 1.02
HCC-15 | 1.33

Same assay, conditions: first compound 0.1 µM

Cell Line | relative viability
NCI-H2170 | 0.737
NCI-H3122 | 1.07
HOP-62 | 0.648
LU99A | 0.334
BEN | 0.807
HARA | 0.348
HCC-78 | 0.74
NCI-H441 | 0.935
LCLC-97TM1 | 0.188
A-427 | 0.78
NCI-H460 | 0.874
NCI-H838 | 1.03
NCI-H1734 | 0.552
NCI-H596 | 1.14
NCI-H2405 | 0.986
NCI-H1395 | 0.409

Cell Line | relative viability
201T | 0.657
NCI-H1915 | 0.752
HCC-827 | 0.216
LXF-289 | 1.15
NCI-H2347 | 0.947
CAL-12T | 0.751
NCI-H1651 | 0.517
EPLC-272H | 0.265
NCI-H23 | 0.27
NCI-H1355 | 0.898
NCI-H322M | 0.568
NCI-H1437 | 1.1
NCI-H1755 | 0.422
NCI-H2085 | 1.06
HCC-15 | 1.18

Same assay, conditions: first compound 0.3162 µM

Cell Line | relative viability
NCI-H2170 | 0.975
NCI-H3122 | 1.05
HOP-62 | 0.584
LU99A | 0.687
BEN | 0.718
HARA | 0.271
HCC-78 | 0.534
NCI-H441 | 1.16
LCLC-97TM1 | 0.227
A-427 | 0.694
NCI-H460 | 0.597
NCI-H838 | 0.97
NCI-H1734 | 0.595
NCI-H596 | 1.09
NCI-H2405 | 0.716
NCI-H1395 | 0.366

Cell Line | relative viability
201T | 0.625
NCI-H1915 | 0.728
HCC-827 | 0.2
LXF-289 | 1.14
NCI-H2347 | 0.829
CAL-12T | 0.622
NCI-H1651 | 0.536
EPLC-272H | 0.241
NCI-H23 | 0.268
NCI-H1355 | 0.825
NCI-H322M | 0.451
NCI-H1437 | 1.15
NCI-H1755 | 0.373
NCI-H2085 | 0.957
HCC-15 | 1.34

Same assay, conditions: first compound 1 µM

Cell Line | relative viability
NCI-H2170 | 0.905
NCI-H3122 | 0.959
HOP-62 | 0.646
LU99A | 0.323
BEN | 0.694
HARA | 0.368
HCC-78 | 0.694
NCI-H441 | 1.43
LCLC-97TM1 | 0.362
A-427 | 0.75
NCI-H460 | 0.658
NCI-H838 | 1.1
NCI-H1734 | 0.55
NCI-H596 | 1.09
NCI-H2405 | 0.77
NCI-H1395 | 0.448

Cell Line | relative viability
201T | 0.603
NCI-H1915 | 0.729
HCC-827 | 0.197
LXF-289 | 1.18
NCI-H2347 | 0.712
CAL-12T | 0.736
NCI-H1651 | 0.44
EPLC-272H | 0.176
NCI-H23 | 0.231
NCI-H1355 | 0.787
NCI-H322M | 0.572
NCI-H1437 | 1.11
NCI-H1755 | 0.427
NCI-H2085 | 1.05
HCC-15 | 1.24

The cell lines below were run with CC(C)=CC[C@@H](O)C1=CC(=O)c2c(O)ccc(O)c2C1=O [Shikonin] + Cc1cc(Nc2cc(N3CCN(C)CC3)nc(Sc3ccc(NC(=O)C4CC4)cc3)n2)n[nH]1 [Tozasertib] (partner 0.1 µM) in the same assay as above. Settings: first compound 0.01 µM.
Procedure, shortened: as §1

Cell Line | relative viability
NCI-H2170 | 0.68
NCI-H3122 | 0.359
HOP-62 | 0.369
LU99A | 0.248
BEN | 0.508
HARA | 0.0977
HCC-78 | 0.465
NCI-H441 | 0.898
LCLC-97TM1 | 0.254
A-427 | 0.198
NCI-H460 | 0.456
NCI-H838 | 0.289
NCI-H1734 | 0.288
NCI-H596 | 0.79
NCI-H2405 | 0.768
NCI-H1395 | 0.794

Cell Line | relative viability
201T | 0.99
NCI-H1915 | 0.444
HCC-827 | 0.452
LXF-289 | 0.212
NCI-H2347 | 0.546
CAL-12T | 0.322
NCI-H1651 | 0.8
EPLC-272H | 0.226
NCI-H23 | 0.363
NCI-H1355 | 0.559
NCI-H322M | 0.486
NCI-H1437 | 0.417
NCI-H1755 | 0.578
NCI-H2085 | 0.758
HCC-15 | 0.459

Same assay, conditions: first compound 0.1 µM

Cell Line | relative viability
NCI-H2170 | 0.494
NCI-H3122 | 0.431
HOP-62 | 0.407
LU99A | 0.281
BEN | 0.507
HARA | 0.0981
HCC-78 | 0.433
NCI-H441 | 0.617
LCLC-97TM1 | 0.21
A-427 | 0.192
NCI-H460 | 0.496
NCI-H838 | 0.264
NCI-H1734 | 0.284
NCI-H596 | 0.83
NCI-H2405 | 0.802
NCI-H1395 | 0.842

Cell Line | relative viability
201T | 1.14
NCI-H1915 | 0.498
HCC-827 | 0.456
LXF-289 | 0.183
NCI-H2347 | 0.504
CAL-12T | 0.294
NCI-H1651 | 0.783
EPLC-272H | 0.215
NCI-H23 | 0.335
NCI-H1355 | 0.553
NCI-H322M | 0.467
NCI-H1437 | 0.43
NCI-H1755 | 0.521
NCI-H2085 | 0.829
HCC-15 | 0.445

Same assay, conditions: first compound 0.3162 µM

Cell Line | relative viability
NCI-H2170 | 0.695
NCI-H3122 | 0.462
HOP-62 | 0.369
LU99A | 0.298
BEN | 0.51
HARA | 0.115
HCC-78 | 0.402
NCI-H441 | 0.663
LCLC-97TM1 | 0.222
A-427 | 0.159
NCI-H460 | 0.483
NCI-H838 | 0.257
NCI-H1734 | 0.302
NCI-H596 | 0.914
NCI-H2405 | 0.779
NCI-H1395 | 0.806

Cell Line | relative viability
201T | 0.968
NCI-H1915 | 0.454
HCC-827 | 0.432
LXF-289 | 0.209
NCI-H2347 | 0.594
CAL-12T | 0.325
NCI-H1651 | 0.744
EPLC-272H | 0.249
NCI-H23 | 0.658
NCI-H1355 | 0.554
NCI-H322M | 0.478
NCI-H1437 | 0.405
NCI-H1755 | 0.506
NCI-H2085 | 0.868
HCC-15 | 0.33

Same assay, conditions: first compound 1 µM

Cell Line | relative viability
NCI-H2170 | 0.739
NCI-H3122 | 0.51
HOP-62 | 0.38
LU99A | 0.234
BEN | 0.52
HARA | 0.113
HCC-78 | 0.372
NCI-H441 | 0.601
LCLC-97TM1 | 0.17
A-427 | 0.225
NCI-H460 | 0.414
NCI-H838 | 0.29
NCI-H1734 | 0.161
NCI-H596 | 0.732
NCI-H2405 | 0.687
NCI-H1395 | 0.763

Cell Line | relative viability
201T | 0.935
NCI-H1915 | 0.482
HCC-827 | 0.453
LXF-289 | 0.196
NCI-H2347 | 0.558
CAL-12T | 0.432
NCI-H1651 | 0.748
EPLC-272H | 0.191
NCI-H23 | 0.413
NCI-H1355 | 0.583
NCI-H322M | 0.381
NCI-H1437 | 0.455
NCI-H1755 | 0.532
NCI-H2085 | 0.801
HCC-15 | 0.465
